The values that follow come from US12459922B2 (Gilead Sciences, Inc., priority 2022, dated 2025).

The EC50 is the concentration giving half of the maximal effect.

This experiment concerns endogenous cellular STAT1 (phosphorylated at Tyr701) in NCI-H1373 cells. Put plainly: Phospho-STAT1 (Tyr701) LANCE Ultra TR-FRET Detection Assay. To be noted: Homo sapiens, NCI-H1373, 48 h, phospho-STAT1 (Tyr701) induction, read-out: NH1373 pSTAT1 EC50. It is filed as cell-based. On the technique in general: In TR-FRET formats the signal depends on donor and acceptor labels being close together.

For `O=c1[nH]ncc(N[C@H]2CC[C@@H](Cn3ccc4cc(-c5ncc(C(F)(F)F)cn5)c(F)cc4c3=O)C2)c1C(F)(F)F` [Example 443, 7-fluoro-2-(((1R,3S)-3-((6-oxo-5-(trifluoromethyl)-1,6-dihydropyridazin-4-yl)amino)cyclopentyl)methyl)-6-(5-(trifluoromethyl)pyrimidin-2-yl)isoquinolin-1(2H)-one], the half-maximal effective concentration (EC50) came out at 273 nM. Then `C[C@@H](CCCn1ccc2cc(-c3ncc(F)c(N)n3)c(F)cc2c1=O)Nc1cn[nH]c(=O)c1C(F)(F)F` [Example 103, 6-(4-amino-5-fluoro-pyrimidin-2-yl)-7-fluoro-2-[(4S)-4-[[6-oxo-5-(trifluoromethyl)-1H-pyridazin-4-yl]amino]pentyl]isoquinolin-1-one], with 39.8 nM; and `C[C@@H](CCCn1ccc2cc(-c3ccc(C(F)F)c(N)n3)c(F)cc2c1=O)Nc1cn[nH]c(=O)c1C(F)(F)F` [Example 224, (S)-6-(6-amino-5-(difluoromethyl)pyridin-2-yl)-7-fluoro-2-(4-((6-oxo-5-(trifluoromethyl)-1,6-dihydropyridazin-4-yl)amino)pentyl)isoquinolin-1(2H)-one], with 6.14 nM; and `CNc1nc(-c2cc3ccn(CCC[C@H](C)Nc4cn[nH]c(=O)c4C(F)(F)F)c(=O)c3cc2F)ncc1C(F)(F)F` [Example 106, 7-fluoro-6-[4-(methylamino)-5-(trifluoromethyl)pyrimidin-2-yl]-2-[(4S)-4-[[6-oxo-5-(trifluoromethyl)-1H-pyridazin-4-yl]amino]pentyl]isoquinolin-1-one], with 2.31 nM. The value for `CC(C)(O)c1ccc(-c2cc3ccn(C[C@@H]4CCC[C@H](Nc5cn[nH]c(=O)c5C(F)(F)F)C4)c(=O)c3cc2F)nc1` [Example 283, 7-fluoro-6-(5-(2-hydroxypropan-2-yl)pyridin-2-yl)-2-(((1R,3S)-3-((6-oxo-5-(trifluoromethyl)-1,6-dihydropyridazin-4-yl)amino)cyclohexyl)methyl)isoquinolin-1(2H)-one] was 113 nM.

Consider `CC[C@@H](CCCn1ccc2cc(-c3ncc(OC)c(N)n3)c(F)cc2c1=O)Nc1cn[nH]c(=O)c1C(F)(F)F` [Example 343, (S)-6-(4-amino-5-methoxypyrimidin-2-yl)-7-fluoro-2-(4-((6-oxo-5-(trifluoromethyl)-1,6-dihydropyridazin-4-yl)amino)hexyl)isoquinolin-1(2H)-one], for which the concentration giving a half-maximal response (EC50) amounted to 3.56 nM. As for `Nc1nc(-c2cc3ccn(C[C@H]4CC[C@@H](Nc5cn[nH]c(=O)c5C(F)(F)F)C4)c(=O)c3cc2F)ncc1C(F)(F)F` [Example 447, 6-(4-amino-5-(trifluoromethyl)pyrimidin-2-yl)-7-fluoro-2-(((1S,3R)-3-((6-oxo-5-(trifluoromethyl)-1,6-dihydropyridazin-4-yl)amino)cvclopentyl)methyl)isoquinolin-1(2H)-one], the concentration for a half-maximal effect (EC50) is 25.6 nM. With `C[C@@H](CCCn1ccc2cc(-c3ncc(OCCO)cn3)c(F)cc2c1=O)Nc1cn[nH]c(=O)c1C(F)(F)F` [Example 129, (S)-7-fluoro-6-(5-(2-hydroxyethoxy)pyrimidin-2-yl)-2-(4-((6-oxo-5-(trifluoromethyl)-1,6-dihydropyridazin-4-yl)amino)pentyl)isoquinolin-1(2H)-one], the EC50 stood at 77.8 nM.

`COc1cnc(-c2cc3ccn(C[C@@H]4CCC[C@H](Nc5cn[nH]c(=O)c5C(F)(F)F)C4)c(=O)c3cc2F)nc1` [Example 492, 7-fluoro-6-(5-methoxypyrimidin-2-yl)-2-[[(1R,3S)-3-[[6-oxo-5-(trifluoromethyl)-1H-pyridazin-4-yl]amino]cyclohexyl]methyl]isoquinolin-1-one]: the 50% effective concentration (EC50) worked out at 7 nM. Then `CNc1cnc(-c2cc3ccn(C[C@@H]4CCC[C@H](Nc5cn[nH]c(=O)c5C(F)(F)F)C4)c(=O)c3cc2F)cn1` [Example 274, 7-fluoro-6-(5-(methylamino)pyrazin-2-yl)-2-(((1R,3S)-3-((6-oxo-5-(trifluoromethyl)-1,6-dihydropyridazin-4-yl)amino)cyclohexyl)methyl)isoquinolin-1(2H)-one], with 78 nM; and `O=c1[nH]ncc(N[C@H](CCCn2cnc3cc(-c4ncc(C(F)F)cn4)c(F)cc3c2=O)C2CC2)c1C(F)(F)F` [Example 468, 3-[(4R)-4-cyclopropyl-4-[[6-oxo-5-(trifluoromethyl)-1H-pyridazin-4-yl]amino]butyl]-7-[5-(difluoromethyl)pyrimidin-2-yl]-6-fluoro-quinazolin-4-one], with 42.5 nM; and `O=c1[nH]ncc(N[C@H](CCCn2ccc3cc(-c4ccc(C(F)F)cn4)c(F)c(F)c3c2=O)COC(F)F)c1C(F)(F)F` [Example 406, (R)-2-(5-(difluoromethoxy)-4-((6-oxo-5-(trifluoromethyl)-1,6-dihydropyridazin-4-yl)amino)pentyl)-6-(5-(difluoromethyl)pyridin-2-yl)-7,8-difluoroisoquinolin-1(2H)-one], with 1.72 nM. For the compound `CC(CCCn1ccc2cc(-c3ncc(C(F)(F)F)cn3)c(F)cc2c1=O)Oc1cn[nH]c(=O)c1C(F)(F)F` (stereo not shown) [Example 136, 7-fluoro-2-[4-[[6-oxo-5-(trifluoromethyl)-1H-pyridazin-4-yl]oxy]pentyl]-6-[5-(trifluoromethyl)pyrimidin-2-yl]isoquinolin-1-one], the EC50 came out at 75.9 nM. Then `O=c1[nH]ncc(N[C@H]2CCC[C@@H](Cn3ccc4cc(-c5ncc(C(F)(F)F)cn5)cc(F)c4c3=O)C2)c1C(F)(F)F` [Example 285, 8-fluoro-2-(((1R,3S)-3-((6-oxo-5-(trifluoromethyl)-1,6-dihydropyridazin-4-yl)amino)cyclohexyl)methyl)-6-(5-(trifluoromethyl)pyrimidin-2-yl)isoquinolin-1(2H)-one], with 78.7 nM; and `CC[C@@H](CCCn1cnc2cc(-c3cnc(C(F)F)cn3)c(F)cc2c1=O)Nc1cn[nH]c(=O)c1C(F)(F)F` [Example 346, (S)-7-(5-(difluoromethyl)pyrazin-2-yl)-6-fluoro-3-(4-((6-oxo-5-(trifluoromethyl)-1,6-dihydropyridazin-4-yl)amino)hexyl)quinazolin-4(3H)-one], with 187 nM.

`C[C@@H](CCCn1cnc2cc(-c3ccc(C(F)(F)F)c(N)n3)c(F)cc2c1=O)Nc1cn[nH]c(=O)c1C(F)(F)F` [Example 212]: the EC50 is 36.6 nM.

With `O=c1[nH]ncc(N[C@H]2COC[C@@H](Cn3ccc4cc(-c5ncc(C(F)(F)F)cn5)c(F)cc4c3=O)C2)c1C(F)(F)F` [Example 229, 7-fluoro-2-(((3R,5R)-5-((6-oxo-5-(trifluoromethyl)-1,6-dihydropyridazin-4-yl)amino)tetrahydro-2H-pyran-3-yl)methyl)-6-(5-(trifluoromethyl)pyrimidin-2-yl)isoquinolin-1(2H)-one], the EC50 was 72.5 nM. On to `O=c1[nH]ncc(N2CC[C@H]2CCCn2cnc3cc(-c4ncc(C(F)(F)F)cn4)c(F)cc3c2=O)c1C(F)(F)F` (single isomer, unassigned) [Example 152], for which the half-maximal effective concentration (EC50) was found to be 0.508 nM. The value for `Cc1cnc(-c2cc3ncn(CCC[C@H](C)Nc4cn[nH]c(=O)c4C(F)(F)F)c(=O)c3cc2F)nc1N` [Example 78, (S)-7-(4-amino-5-methylpyrimidin-2-yl)-6-fluoro-3-(4-((6-oxo-5-(trifluoromethyl)-1,6-dihydropyridazin-4-yl)amino)pentyl)quinazolin-4(3H)-one] was 317 nM; that for `CC(C)(O)[C@@H](CCCn1ccc2cc(-c3ncc(C(F)(F)F)cn3)c(F)cc2c1=O)Nc1cn[nH]c(=O)c1C(F)(F)F` [Example 73, 7-fluoro-2-[(4R)-5-hydroxy-5-methyl-4-[[6-oxo-5-(trifluoromethyl)-1H-pyridazin-4-yl]amino]hexyl]-6-[5-(trifluoromethyl)pyrimidin-2-yl]isoquinolin-1-one] was 734 nM. The value for `O=c1[nH]ncc(N[C@H](CCCn2ccc3nc(-c4ccc(C(F)F)cn4)ccc3c2=O)COC(F)F)c1C(F)(F)F` [Example 408, (R)-6-(5-(difluoromethoxy)-4-((6-oxo-5-(trifluoromethyl)-1,6-dihydropyridazin-4-yl)amino)pentyl)-2-(5-(difluoromethyl)pyridin-2-yl)-1,6-naphthyridin-5(6H)-one] was 4.11 nM. The value for `Nc1nc(-c2cc3ccn(CCC[C@@H](Nc4cn[nH]c(=O)c4C(F)(F)F)C4CC4)c(=O)c3cc2F)ncc1C(F)(F)F` [Example 144, 6-[4-amino-5-(trifluoromethyl)pyrimidin-2-yl]-2-[(4R)-4-cyclopropyl-4-[[6-oxo-5-(trifluoromethyl)-1H-pyridazin-4-yl]amino]butyl]-7-fluoro-isoquinolin-1-one] was 3.55 nM; that for `COc1cnc(-c2cc3ncn(CCC[C@H](C)Nc4cn[nH]c(=O)c4C(F)(F)F)c(=O)c3cc2F)nc1NCC(F)F` [Example 159, 7-[4-(2,2-difluoroethylamino)-5-methoxy-pyrimidin-2-yl]-6-fluoro-3-[(4S)-4-[[6-oxo-5-(trifluoromethyl)-1H-pyridazin-4-yl]amino]pentyl]quinazolin-4-one] was 283 nM; that for `CC[C@@H](CCCn1ccc2cc(-c3ncc(OC)c(N)n3)c(F)c(F)c2c1=O)Nc1cn[nH]c(=O)c1C(F)(F)F` [Example 350, (S)-6-(4-amino-5-methoxypyrimidin-2-yl)-7,8-difluoro-2-(4-((6-oxo-5-(trifluoromethyl)-1,6-dihydropyridazin-4-yl)amino)hexyl)isoquinolin-1(2H)-one] was 15.1 nM. For `Nc1nc(-c2cc3ccn(C[C@@H]4CCC[C@H](Nc5cn[nH]c(=O)c5C(F)(F)F)C4)c(=O)c3cc2F)ccc1C(F)(F)F` [Example 251, 6-(6-amino-5-(trifluoromethyl)pyridin-2-yl)-7-fluoro-2-(((1R,3S)-3-((6-oxo-5-(trifluoromethyl)-1,6-dihydropyridazin-4-yl)amino)cyclohexyl)methyl)isoquinolin-1(2H)-one], the EC50 is 47.3 nM.
